US12492378B2, “Stepwise method of producing various types of cells from pluripotent stem cells” (Kyoto University, priority 2018, dated 2025)

Tests used:
PAX3-GFP iPS cells = test: Induction of presomitic mesoderm cells (PSM) from human iPS cells, FACS for DLL1 and PAX3-GFP; assay type: cell-based; conditions: single factor, 10 μM CHIR99021, CDM basal medium, 4 days
Procedure: Fluorescence-activated cell sorting (FACS) was performed by AriaII (BD) according to the manufacturer's protocol. Intracellular flow cytometry analysis was also performed by AriaII (BD) according to the manufacturer's protocol. Briefly, cells were fixed and permeabilized prior to the antibody staining. The expression rate of each differentiation marker was calculated by comparing that of iPSCs or induced somite cells. To minimize the effect of growth factors secreted from feeder cells or contained in a culture medium, SNL feeders were removed from an iPS cell culture, and human iPS cells were seeded onto matrigel (BD, Bedford, MA, USA) coated dishes (1.3×10^6 cells/10-cm dish). The iPS cells were cultured under feeder-free condition with […]1 medium (STEMCELL Technology, Vancouver, Canada) for 3 days. The iPS cells were then cultured in CDM basal medium supplemented with one of four factors or the appropriate combination of the four factors for 4 days (FIG. 2B). The added factors are as follows. […] To detect the induction efficiency of presomitic mesoderm cells, the cell population positive for DLL1, a surface marker for a presomitic mesoderm cell and the posterior portion of somite, and negative for PAX3-GFP, showing a newly formed and segmented somite cell, were detected by FACS (FIG. 2C). […]

[1] = tested on: DLL1+ presomitic mesoderm cells; test: Induction of somite cells (SM) from presomitic mesoderm cells; assay type: cell-based, human; conditions: for PAX3-GFP+ cells: four days culture, FACS
Procedure: IPS cells were cultured in SCDF condition of Example 1 for 4 days, and a total of 1.0×10^5 DLL1^+ presomitic mesoderm cells sorted by FACS were seeded onto one well of a matrigel-coated 12-well plate and subsequently underwent the induction of somite cells (FIG. 3A). The induction of somite cells was carried out for 4 days in CDM basal medium supplemented with SB431542 and/or 5 μM CHIR99021. The medium was changed at day 3 of the induction of somite cells. The expression of PAX3-GFP was used as a somite cell marker. The added factors and their concentrations are as follows: • S10: SB431542 10 μM • C1: CHIR99021 1 μM • C5: […]20: FGF2 20 ng/ml • […]: IWR1 10 μM

dermomyotome cells = test: Induction of myotome cells (MYO) from dermomyotome cells; assay type: cell-based, human; conditions: 5 μM CHIR99021, 30 days; number of MYOD- and MYOG-positive cells
Procedure: We next tried to induce myotome cells directly from dermomyotome cells obtained in the above (3). The medium of the dermomyotome cell culture obtained in (3) was replaced with CDM basal medium supplemented with 5 μM of CHIR99021, and the cell culture was further cultured. The medium was changed every 3 days, and the culture was performed for 30 days. A small amount of cultured cells was collected every 6 days, and the expression of myogenic markers MYOD, MYOG and PAX7 was examined over time. Induction of the myogenic markers was found 18 to 30 days after the replacement of the medium. On the other hand, the expression of the dermomyotome cell marker ALX4 was decreased in a time dependent manner (FIG. 4D). The expression of MYOD and MYOG was also determined by immunocytochemistry. The induction efficiency from dermomyotome cells into myotome cells was estimated at approximately 22% based on the number of MYOD- and MYOG-positive cells.

[2] = tested on: somite cell-derived mesenchymal stromal cells induced from FOP-iPS cells; test: 2D chondrogenic induction of FOP-iPS cell-derived mesenchymal stromal cells; assay type: cell-based, human; conditions: 5 days
Procedure: (§1) The GAG content in pellets was quantified with the Blyscan™ Glycosaminoglycan Assay Kit (Biocolor Ltd., Belfast, UK). The DNA content was quantified using the PicoGreen™ dsDNA Quantitation Kit (Invitrogen).
(§2) A total of 1.5×10^5 induced mesenchymal stromal cells or sclerotome cells were suspended in 5 μL of chondrogenic basal. medium (DMEM: F12 (Invitrogen), 1% (v/v) ITS+Premix (BD Biosciences, San Jose, CA, USA), 0.1 μM dexamethasone (WAKO), 0.17 mM L-Ascorbic acid 2-phosphate sesquimagnesium salt hydrate (Sigma), 0.35 mM Proline (Sigma), 0.15% (v/v) glucose (Sigma), 1 mM Na-pyruvate, 2 mM GlutaMax (Invitrogen) and 1% (v/v) FBS), and subsequently transferred to one well of a fibronectin-coated 24-well plate (BD Biosciences). After one hour of incubation at 37° C. in 5% CO2, cells formed micromass.
(§3) Then, the micromass was cultured in 1 ml of chondrogenic basal medium supplemented with 10 ng/ml BMP7 (R&D) and 10 ng/ml TGFβ3 (R&D) with or without 30 ng/ml Activin A (R&D) at 37° C. in 5% CO2 for 5 days.
The micromass induced from somite cell-derived mesenchymal stromal cells from FOP-iPS cells was also cultured in 1 mL of chondrogenic basal medium supplemented with 30 ng/ml Activin A (R&D) with/without 10 nM R667 (Toronto Research Chemicals, Toronto, ON, Canada) or 10 nM Rapamycin (MedChem Express, Monmouth Junction, NJ, USA).
(§4) Differentiation properties of obtained cells were analyzed by RT-qPCR analysis, glycosaminoglycans (GAG) quantification and Alcian Blue staining. Briefly, induced cells were fixed for 30 minutes with 4% paraformaldehyde (WAKO), rinsed with PBS, and then stained overnight with Alcian Blue solution (1% Alcian Blue, pH1) (MUTO PURE CHEMICAL CO., LTD, Tokyo, Japan).

heterotopic ossification = conditions: reported, Hino et al., 2017; cited from earlier work
[3] = tested on: somite cell-derived sclerotome cells; test: 2D chondrogenic induction of FOP-iPS cell-derived sclerotome cells; assay type: cell-based, human; conditions: 30 ng/ml Activin A, 5 days
Procedure: as §1, §2, §3, §4

**Q.** With `Cc1c[nH]c(-c2cnc(NCCNc3ccc(C#N)cn3)nc2-c2ccc(Cl)cc2Cl)n1` [CHIR99021, 6-[2-[4-(2,4-Dichlorophenyl)-5-(4-methyl-1H-imidazol-2-yl)pyrimidin-2-ylamino]ethylamino]pyridine-3-carbonitrile] as the molecule, how does the “DLL1+/PAX3-GFP- cells (induction efficiency)” value (PAX3-GFP iPS cells) read?
**A.** 56.3±3.1%

**Q.** What about the “PAX3-GFP+ cells” value ([1]; 5 μM CHIR99021 (C5)) of the same molecule?
**A.** 70.7±0.1%

**Q.** What about the “PAX3-GFP+ cells” value ([1]; 10 μM CHIR99021 (C10)) of the same molecule?
**A.** 0.3±0.0%

**Q.** And the “PARAXIS and MEOX1 expressions” value ([1]; S10C5 compared with S10I10 or S10, 4 days, RT-qPCR)?
**A.** highly induced

**Q.** What about the PARAXIS-expressing cells ([1]; immunohistochemistry using anti-PARAXIS (TCF15) antibody) of the same molecule?
**A.** found

**Q.** What about the “induction efficiency from dermomyotome cells into myotome cells” value (dermomyotome cells) of the same molecule?
**A.** approximately 22%

**Q.** What does the source list for `CC1(C)CCC(C)(C)c2cc(Cn3cccn3)c(/C=C/c3ccc(C(=O)O)cc3)cc21` [R667]?
**A.** enhanced chondrogenesis by Alcian Blue staining ([2]; 10 nM, with 30 ng/ml Activin A): inhibition of the enhanced chondrogenesis was also confirmed; enhancement of glycosaminoglycan (GAG) production ([2]; 10 nM, with 30 ng/ml Activin A, GAG/DNA): significantly inhibited; enhancement of chondrogenic marker expressions ([2]; 10 nM, with 30 ng/ml Activin A, RT-qPCR): significantly inhibited; inhibition of heterotopic ossification (heterotopic ossification): potent inhibitors

**Q.** With `NC(=O)c1ccc(-c2nc(-c3ccc4c(c3)OCO4)c(-c3ccccn3)[nH]2)cc1` [SB431542] as the molecule, how does the “PAX3-GFP+ cells” value ([1]; 10 μM SB431542 (S10)) read?
**A.** 52.1±0.8%

B1: Activin A: a stimulator of mutant ACVR1; R&D (protein, UniProt P08476 311-426, looked up)
Inhibin beta A chain: GLECDGKVNICCKKQFFVSFKDIGWNDWIIAPSGYHANYCEGECPSHIAGTSGSSLSFHSTVINHYRMRGHSPFANLKSCCVPTKLRPMSMLYYDDGQNIIKKDIQNMIVEECGCS
modifications: Inhibin beta A chain
notes: a stimulator of mutant ACVR1; R&D
**Q.** What does the source list for B1?
**A.** chondrogenesis (chondrogenic markers, GAG production) in FOP-iPS-derived vs resFOP-iPS-derived cells ([2]; 30 ng/ml Activin A): enhancement of the chondrogenesis was observed; chondrogenic marker expressions, GAG production and Alcian Blue staining in FOP-iPS-derived vs resFOP-iPS-derived cells [3]: no difference
